pIC50: −log10 of the molar value.
How the values were obtained:
CHO K1 cells [1] = settings: for DNA uptake, fluorescence of imported Alexa Fluor-488-DNA: 5 μg/mL cationic lipid (black bars, FIG. 8), 1 μg/mL DNA, 4 h at 37° C.; for DNA uptake compared with the lipofectamine control: 0.5, 2.5, 5 μg/mL; for increase in DNA uptake/delivery over diamine 22: FIG. 8, 5 μg/mL dose
Experimental: CHO K1 cells were grown to confluence in 24-well plates, rinsed with medium and incubated for 4 h at 37° C. with 1 μg/mL Alexa Fluor-488-DNA complexed with 0.5 μg/mL (white bars), 2.5 μg/mL (gray bars), or 5 μg/mL (black bars) of the respective cationic lipid, as indicated above each entry; cells were then extensively washed with PBS, treated with trypsin, and cell pellets were again extensively washed with PBS 1% BSA to completely remove non-specific fluorescence from the cell exterior; finally, cells were analyzed for Alexa Fluor-488-DNA uptake by flow cytometry on a FACSCalibur (BD Biosciences) operated by Cell-Quest software.
CHO K1 cells were grown to confluence in 24-well plates, rinsed with medium and incubated for 4 h at 37° C. with 1 μg/mL Alexa Fluor-488-DNA complexed with 0.5 μg/mL (white bars), 2.5 μg/mL (grey bars), or 5 μg/mL (black bars) of the respective cationic lipid, as indicated above each entry. Cells were then extensively washed with PBS, treated with trypsin, and cell pellets were again extensively washed with PBS 1% BSA to completely remove non-specific fluorescence from the cell exterior. Finally, cells were analyzed for Alexa Fluor-488-DNA uptake by flow cytometry on a FACSCalibur (BD Biosciences) operated by Cell-Quest software.
A gate was set just above the threshold signal for control cells (DNA only with no lipid conjugate). […] Data are presented as the mean±SD.
AlexaFluor-488 labeled DNA with or without cationic lipid was mixed in serum-free F12K and added to extensively rinsed cells grown in 24-well plates. Cells were then incubated for 4 h at 37° C. After removal of the incubation medium and rinsing with PBS, cells were detached with trypsin followed by extensive washing with ice-cold PBS, 1% (w/v) bovine serum albumin (BSA) to remove non-specific fluorescence. Finally, cells were suspended in PBS, 1% BSA and analyzed for DNA uptake by flow cytometry on a FACSCalibur (BD Biosciences) operated by Cell-Quest software.

CHO K1 cells [2] = experiment: eGFP DNA plasmid transfection, GFP expression by FACS (FIG. 10, FIG. 11); type: cell-based, Chinese hamster; settings: for % GFP positive cells (transfection efficiency): 5 μg/mL dose
Experimental: (§1) Medium was then changed, and cells were incubated for another 24 h to allow for GFP plasmid expression; cells were detached by trypsin treatment and analyzed for GFP expression by FACS; Lipofectamine is denoted as LFA; the value obtained with DNA plasmid only was subtracted from each entry above (almost negligible);
In order for the ‘therapy’ to be effective, the DNA must escape from the endosome and enter the cell's nucleus, be transcribed to a regulatory, non coding RNA (RNAi) or to mRNA that is translated into its coded protein. Therefore, we investigated the conjugate-assisted expression of an eGFP DNA plasmid encoding for the green fluorescent protein (GFP). CHO cells, which were successfully transfected, were easily identified by their green fluorescence. Control experiments conducted with only the eGFP DNA plasmid (and no lipid carrier) gave virtually no fluorescence. A gate or instrumental threshold was set based upon this low background fluorescence. Fluorescence detected above this background was considered a positive response.
as §1, with “expression. Cells” for “expression; cells”, “FACS.” for “FACS;”, “LFA. The” for “LFA; the”, “negligible).” for “negligible);”
A gate was set just above the threshold measured with no DNA plasmid and no conjugate added (almost negligible). […] Data are presented as the mean±SD.
(§2) GFP transfection experiments—eGFP encoding DNA plasmid with or without cationic lipid was mixed in F12K and incubated with pre-rinsed, sub-confluent cells in 24-well plates for 4 h, followed by another incubation period of 24 h in growth medium. Cells were then washed with PBS, detached by trypsin treatment, dissolved in PBS, 1% BSA, and analyzed by FACS for GFP expression.

[3] = system: Ramos human leukemia cells; experiment: Sensitization to OKT10 immunotoxin intoxication, Ramos; type: cell-based
Experimental: (§3) We have also documented lipopolyamine-induced toxin sensitization with two other saporin-based toxins: (i) FGF-saporin, a chemical conjugate between fibroblast growth factor and saporin; and (ii) the OKT10 immunotoxin which consists of a chemical conjugate between saporin and an antibody that recognizes the CD38 cancer antigen. DU145 human prostate cancer cells exposed to lipopolyamine 26 and FGF-saporin were 85-fold more sensitive to intoxication than cells incubated with FGF-saporin alone. […] We have also shown that Ramos human leukemia cells exposed to lipopolyamine 26 and OKT10 are 100-fold more sensitive to intoxication than cells incubated with OKT10 alone.

[4] = system: DU145 human prostate cancer cells; experiment: Lipopolyamine-induced sensitization to FGF-saporin intoxication, DU145; type: cell-based
Experimental: as §3

HeLa cells [5] = experiment: Sensitization to FGF-saporin intoxication in non-target HeLa cells; type: cell-based; settings: which do not express the FGF receptor
[6] = system: polyamine transporter, PAT; experiment: [14C]Spermine uptake inhibition (competition assay) in CHO-K1 cells (FIG. 12); type: cell-based, Chinese hamster
Text: We theorized that 26 may be using the polyamine transporter, PAT, for cellular entry. […] This observation implied that 26 was able to compete for the polyamine recognition sites on the cell surface (e.g., PAT). Therefore, it is possible that certain lipophilic polyamines, which present the correct polyamine ‘message’, may be able to recognize and target cells expressing high levels of polyamine transporters on their cell surface (e.g., cancer cells, rapidly dividing tumors, etc.). However, as shown in this report, delivery into the cell is just one step in successful gene transfection. Nevertheless, the findings disclosed herein are an important first step in developing ‘smart’ transfection agents.

CHO K1 cells [7] = type: cell-based; settings: Chinese hamster, 24 h, 0.5 μM
Experimental: Taking these factors into account, cytotoxicity screens were performed to investigate the relative toxicity of each system. Most materials were relatively non-toxic with IC50 values ≧20 μM. Armed with this insight, cells were treated with ≦6.4 μM of the polyamine conjugate so as to avoid significant toxic effects from the delivery agent itself. Indeed, at this dose ≧90% of cells survived transfection for all compounds except 28. Indeed, compound 28 was very toxic (after 24 h incubation) and even at the lowest dose used for transfection (0.5 μg/mL; 0.5 μM 28) killed 95% of the cells. As such, 28 was too toxic for efficient transfection at the doses surveyed and its data is strongly biased by the few remaining cells, which survived.
as §2

HeLa cells [8] = settings: cited from earlier work

| Structure (SMILES) | DNA uptake, fluorescence of imported Alexa Fluor-488-DNA (CHO K1 cells [1]) | % GFP positive cells (transfection efficiency) (CHO K1 cells [2]; FIG. 11) | GFP expression/cell (CHO K1 cells [2]; 5 μg/mL, FIG. 10) | DNA uptake compared with the lipofectamine control (CHO K1 cells [1]; FIG. 8) | increase in DNA uptake/delivery over diamine 22 (CHO K1 cells [1]) | further results |
| --- | --- | --- | --- | --- | --- | --- |
| CCCCCCCCC=CCCCCCCCCOc1ccc(CNCCCCN)cc1OCCCCCCCCC=CCCCCCCCC.Cl.Cl [Compound 22, N^1-(3,4-Bis-octadec-9-enyloxy-benzyl)-butane-1,4-diamine, dihydrochloride salt] | 94 a.u. | 38% |  |  |  |  |
| CCCCCCCCC=CCCCCCCCCOc1ccc(CNCCCCCCCCN)cc1OCCCCCCCCC=CCCCCCCCC.Cl.Cl [Compound 23, N^1-(3,4-Bis-octadec-9-enyloxy-benzyl)-octane-1,8-diamine, dihydrochloride salt] |  | 23% | 5 a.u. |  |  | positive cells of the total cell population after DNA uptake experiment (CHO K1 cells [1]; 5 μg/mL, black bars in FIG. 9, gated): 84% |
| CCCCCCCCC=CCCCCCCCCOc1ccc(CNCCOCCOCCN)cc1OCCCCCCCCC=CCCCCCCCC.Cl.Cl [Compound 24, 2-{2-[2-(3,4-Bis-octadec-9-enyloxy-benzylamino)-ethoxy]-ethoxy}-ethylamine, dihydrochloride salt] |  | 25% | 7 a.u. | as good |  | DNA delivery (DNA probe fluorescence) of polyether eight-atom spacer versus octanediamine analogue (CHO K1 cells [1]; FIG. 8): nearly doubled |
| CCCCCCCCC=CCCCCCCCCOc1ccc(CNCCCCNCCCCN)cc1OCCCCCCCCC=CCCCCCCCC.Cl.Cl.Cl [Compound 25, N-(4-Amino-butyl)-N′-(3,4-bis-octadec-9-enyloxy-benzyl)-butane-1,4-diamine, tri hydrochloride salt] | 281 a.u. | 49% |  | as good | 3 fold | DNA delivery compared with 22 (CHO K1 cells [1]; FIG. 8): three-fold increase; transfection efficiency compared with 22 (CHO K1 cells [2]; FIG. 11): only slightly higher transfection efficiency than 22 |
| CCCCCCCCC=CCCCCCCCCOc1ccc(CNCCCCNCCCCNCCCCN)cc1OCCCCCCCCC=CCCCCCCCC.Cl.Cl.Cl.Cl [Compound 26, N-[4-(4-Amino-butylamino)-butyl]-N′-(3,4-bis-octadec-9-enyloxy-benzyl)-butane-1,4-diamine, tetrahydrochloride salt] | 504 a.u. | 67% | 25 a.u. | better | > 5 fold | sensitivity to OKT10 intoxication versus OKT10 alone [3]: 100 fold; sensitivity to FGF-saporin intoxication versus FGF-saporin alone [4]: 85 fold; DNA delivered to the cell relative to control LFA (CHO K1 cells [1]; black bars in FIG. 8, 5 μg/mL): 3 fold; sensitization of non-target cells to FGF-saporin (HeLa cells [5]): no more sensitive to intoxication; pIC50 ([6]; 1 μM [14C]spermine, 20 min, serum free medium, CHO-K1): ~5.00; polyamine uptake inhibition ([6]; FIG. 12 legend): efficient inhibitor of polyamine uptake; higher transfection efficiency than the LFA control (CHO K1 cells [2]; 5 μg/mL, FIG. 11): over 50%; relative GFP expression/cell versus LFA (CHO K1 cells [2]; FIG. 10): two fold higher; % of GFP positive cells relative to LFA (CHO K1 cells [2]; FIG. 11): 1.5 fold |
| CCCCCCCCC=CCCCCCCCCOc1ccc(C(=O)NCCCCNCCCCN)cc1OCCCCCCCCC=CCCCCCCCC.Cl.Cl [Compound 27, N-[4-(4-Amino-butylamino)-butyl]-3,4-bis-octadec-9-enyloxy-benzamide, dihydrochloride salt] |  | 40% |  | better | greater than 4 fold | DNA delivery compared with 22 (CHO K1 cells [1]; FIG. 8): more efficient DNA delivery agent than 22; transfection efficiency compared with 22 (CHO K1 cells [2]; FIG. 11): nearly identical transfection efficiency |
| CCCCCCCCC=CCCCCCCCCOc1ccc(C(=O)NCCCCNCCCCNCCCCN)cc1OCCCCCCCCC=CCCCCCCCC.Cl.Cl.Cl [Compound 28, N-{4-[4-(4-Amino-butylamino)-butylamino]-butyl}-3,4-bis-octadec-9-enyloxy-benzamide, trihydrochloride salt] |  |  |  |  |  | cells killed (CHO K1 cells [7]): 95% |
| CCCCCCCCCCCCCCCCCCN(CCCCCCCCCCCCCCCCCC)C(=O)CNC(=O)CNCCCNCCCCNCCCN [RPR 120535] |  |  |  |  |  | more effective at transfection than branched-, globular- or T-shaped polar domains (HeLa cells [8]): 5-10 times |
